Data reported in paper PMC7413516, “Antidepressant-like activity and safety profile evaluation of 1H-imidazo[2,1-f]purine-2,4(3H,8H)-dione derivatives as 5-HT1A receptor partial agonists” (PLoS ONE, 2020).
Where “and” joins values, the source holds several entries; their conditions need not be identical. Identical values can stand only once.

Key:
mice = experiment: Locomotor activity (Opto M3 activity monitor) in mice; type: in vivo, Swiss albino mice; conditions: for effect on spontaneous locomotor activity, acute administration: 4 min period identical to FST, AZ-853 0.625, 1.25, 2.5 mg/kg, AZ-861 1.25 mg/kg, WAY-100635 0.3 mg/kg alone or combined; for Number of movements (individual animals): raw data
Source text: The investigated compounds AZ-853 (8-(4-(4-(2-fluorophenyl)piperazin-1-yl)butyl)-1,3-dimethyl-1H-imidazo[2,1-f]purine-2,4(3H,8H)-dione and AZ-861 (1,3-dimethyl-8-(4-(4-(3-(trifluoromethyl)phenyl)piperazin-1-yl)butyl)-1H-imidazo[2,1-f]purine-2,4(3H,8H)-dione) were synthesised in the Department of Medicinal Chemistry, Faculty of Pharmacy, Jagiellonian University, and their synthesis was described earlier. AZ-853 and AZ-861 were suspended in 1% aqueous solution of Tween 80, and WAY-100635 (Sigma, Germany) was dissolved in 0.9% saline. In acute experiments, the selected compounds AZ-853 (0.156–2.5 mg/kg) and AZ-861 (0.625–2.5 mg/kg) were injected i.p. once 60 min before tests, whereas WAY-100635 (0.3 mg/kg) was administered subcutaneously (s.c.) 45 min before the test. […] In chronic experiments, AZ-853 and AZ-861 were administered i.p. once a day (between 9:00 AM and 10:00 AM) for 16 consecutive days at the minimum active doses selected from FST experiment, i.e. 0.625 and 1.25 mg/kg, respectively. […]. The control groups received 1% aqueous solution of Tween 80.
Locomotor activity was recorded with an Opto M3 multi-channel activity monitor (MultiDevice Software v.1.3, Columbus Instruments). The Swiss albino mice were individually placed in plastic cages (220 × 120 × 130 mm) for 30 min habituation period, and then the crossings of each channel (ambulation) were counted from […] to 6 min, that is the time equal to the observation period in FST. The cages were cleaned up with 70% ethanol after each mouse.
The Swiss albino mice were used in the experiment. AZ-853 and AZ-861 were injected once daily for 16 consecutive days. […]. FST, as described earlier, was performed on the 14th day just before the next treatment. To ensure that the effects observed in FST are not the result of increased motility of animals, on the 13th day, just before the next administration, the locomotor activity was measured as described earlier, from 2 to 6 min after test start, i.e. in the period identical to the duration of FST. Blood and organ collection was performed on the 17th day at 24 h after the last dose and fasting.

human serotonin 5-HT1AR = molecular target: T1, human serotonin 5-HT1AR (Homo sapiens, UniProt P08908); experiment: cAMP inhibition (LANCE Ultra cAMP, forskolin-stimulated CHO-K1 cells); conditions: for Emax: CHO-K1, read-out: Emax (%) ± SEM, agonist mode
T1 sequence (P08908 1-422): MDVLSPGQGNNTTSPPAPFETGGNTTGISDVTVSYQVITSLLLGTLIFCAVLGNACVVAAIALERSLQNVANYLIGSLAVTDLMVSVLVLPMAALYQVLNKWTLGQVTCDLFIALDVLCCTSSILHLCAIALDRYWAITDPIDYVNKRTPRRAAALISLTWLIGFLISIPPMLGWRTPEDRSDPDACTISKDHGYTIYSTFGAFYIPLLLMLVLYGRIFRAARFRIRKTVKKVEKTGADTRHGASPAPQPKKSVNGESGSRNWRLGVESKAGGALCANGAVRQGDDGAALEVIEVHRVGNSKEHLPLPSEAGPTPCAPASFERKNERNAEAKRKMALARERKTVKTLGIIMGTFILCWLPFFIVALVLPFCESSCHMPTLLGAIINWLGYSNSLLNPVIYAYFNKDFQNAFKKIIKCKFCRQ
Protocol: CHO-K1 cell line transfected with 5-HT1A receptor, were commercially obtained from Perkin Elmer (Cat. No. ES-310-C, Lot Number M2W-C1). Cells were cultured according to manufacturer’s instruction.
The cells were cultured under selective conditions (400 μg/mL Geneticin G418). Thawed cells were resuspended in stimulation buffer (HBSS, 5 mM HEPES, 0.5 IBMX, and 0.1% BSA at pH 7.4) at 2 × 10^5 cells/mL. The same volume (10 μL) of cell suspension was added to tested compounds with 10 μM forskolin. Cell stimulation was performed for 40 min at room temperature. After incubation, cAMP measurements were performed with homogeneous TR-FRET immunoassay using the LANCE Ultra cAMP kit (PerkinElmer, USA) according to the manufacturer’s instruction (PerkinElmer). The TR-FRET signal was read on an EnVision microplate reader (PerkinElmer, USA).

[1] = acute, 1.25 mg/kg i.p., measured from 3 to 6 min

Row | EC50 (human serotonin 5-HT1AR) | Emax (human serotonin 5-HT1AR) | lower efficacy than 5-HT (human serotonin 5-HT1AR; cAMP inhibition) | lower potency than 5-HT (human serotonin 5-HT1AR; cAMP inhibition) | higher potency than 5-HT (human serotonin 5-HT1AR; cAMP inhibition) | Compound | effect on spontaneous locomotor activity, acute administration (mice) | Number of movements (mean) (mice; acute, 0.625 mg/kg i.p., measured from 3 to 6 min) | Number of movements (individual animals) (mice; acute, 0.625 mg/kg, 3 to 6 min) | Number of movements (mean) (mice; [1]) | Number of movements (individual animals) (mice; acute, 1.25 mg/kg, 3 to 6 min) | Number of movements (mean) (mice; acute, 2.5 mg/kg i.p., measured from 3 to 6 min) | Number of movements (individual animals) (mice; acute, 2.5 mg/kg, 3 to 6 min) | Number of movements (mean) (mice; repeated, 0.625 mg/kg, 24 h after 12th administration, during 4 min) | Number of movements (individual animals) (mice; repeated, 0.625 mg/kg) | Number of movements (mean) (mice; repeated, 1.25 mg/kg, 24 h after 12th administration, during 4 min) | Number of movements (individual animals) (mice; repeated, 1.25 mg/kg)
1 | 15.8 nM | 43 ± 0.5% | 2.3 fold | 1.4 fold |  | Cn1c(=O)c2c(nc3n(CCCCN4CCN(c5ccccc5F)CC4)ccn23)n(C)c1=O [AZ-853, 8-(4-(4-(2-fluorophenyl)piperazin-1-yl)butyl)-1,3-dimethyl-1H-imidazo[2,1-f]purine-2,4(3H,8H)-dione] | did not change the behavior of the animals | 127.8 | 130 and 222 and 166 and 48 and 117 and 84 | 149.8 | 200 and 171 and 90 and 115 and 119 and 204 | 156.8 | 116 and 258 and 120 and 200 and 205 and 42 | 519.5 | 820 and 399 and 687 and 223 and 606 and 272 and 558 and 551 and 418 and 661 |  | 
2 | 4.37 nM | 76 ± 1.7% | 1.3 fold |  | 2.6 fold | Cn1c(=O)c2c(nc3n(CCCCN4CCN(c5cccc(C(F)(F)F)c5)CC4)ccn23)n(C)c1=O [AZ-861, 1,3-dimethyl-8-(4-(4-(3-(trifluoromethyl)phenyl)piperazin-1-yl)butyl)-1H-imidazo[2,1-f]purine-2,4(3H,8H)-dione] | did not change the behavior of the animals |  |  | 167.3 | 185 and 251 and 120 and 156 and 217 and 91 and 151 |  |  |  |  | 513.9 | 418 and 521 and 595 and 467 and 633 and 454 and 778 and 245
